Square brackets hold non-standard residues; d marks the D form. Peptide text beside a SMILES is read from it. Nle = CCCC[C@H](N)C(=O)O
Key:
[1] = system: secretion of β-endorphin by cultured rat pituitary cells; test: Blocking of β-endorphin (β-END-LI) secretion by cultured rat pituitary cells; format: cell-based; settings: general procedure set forth in Example III
Experimental: (§1) The effectiveness of synthetic CRF antagonists to block the secretion of ACTH and β-endorphin by cultured rat pituitary cells is measured using the procedure as generally set forth in Vale et al., Endocrinology, 91, 562 (1972). In vivo testing is carried out using the general procedure set forth in C. Rivier et al., Science, 218, 377 (1982).

[2] = system: secretion of ACTH by cultured rat pituitary cells; test: Blocking of oCRF-stimulated ACTH secretion by cultured rat pituitary cells; format: cell-based; settings: general procedure set forth in Example III
Experimental: as §1

ACTH secretion = ACTH secretion in vivo after intravenous hCRF in rat preparations
Experimental: (§2) Plasma levels of ACTH and β-END-LI are elevated for at least 5-20 minutes following the intraveneous administration of hCRF to nembutal-anesthesized male rats and to quiescent male or female rats with indwelling intravenous cannulae.

β-END-LI secretion = β-END-LI secretion in vivo after intravenous hCRF in rat preparations
Experimental: as §2

[3] = intravenous, nembutal-anesthetized male rats and quiescent cannulated male or female rats

Row | Compound | inhibition of the secretion of β-END-LI (in words) [1] | inhibition of the secretion of ACTH (in words) [2] | time for which plasma levels of ACTH are elevated (ACTH secretion; [3]) [min] | stimulation of ACTH secretion in vivo (ACTH secretion; several rat preparations) | time for which plasma levels of β-END-LI are elevated (β-END-LI secretion; [3]) [min] | stimulation of β-END-LI secretion in vivo (β-END-LI secretion; several rat preparations)
1 | CCCC[C@H](NC(=O)[C@H](CCC(=O)O)NC(=O)[C@H](CC(C)C)NC(=O)[C@H](CCCC)NC(=O)[C@H](CCC(=O)O)NC(=O)[C@H](CCCNC(=N)N)NC(=O)[C@H](CC(C)C)NC(=O)[C@H](CC(C)C)NC(=O)[C@H](Cc1c[nH]cn1)NC(=O)[C@H](Cc1ccccc1)NC(=O)[C@@H](NC(=O)[C@H](CC(C)C)NC(=O)[C@H](CC(=O)O)NC(=O)[C@@H](N)CC(C)C)[C@@H](C)O)C(=O)N[C@@H](C)C(=O)N[C@@H](CCCCN)C(=O)N[C@@H](C)C(=O)N[C@@H](CCC(=O)O)C(=O)N[C@@H](CCC(N)=O)C(=O)N[C@@H](CCC(=O)O)C(=O)N[C@@H](C)C(=O)N[C@@H](CCC(=O)O)C(=O)N[C@@H](CCC(N)=O)C(=O)N[C@@H](C)C(=O)N[C@@H](C)C(=O)N[C@@H](CC(C)C)C(=O)N[C@@H](CC(N)=O)C(=O)N[C@@H](CCCNC(=N)N)C(=O)N[C@@H](CC(C)C)C(=O)N[C@@H](CC(C)C)C(=O)N[C@@H](CC(C)C)C(=O)N[C@@H](CCC(=O)O)C(=O)N[C@@H](CCC(=O)O)C(=O)N[C@@H](C)C(N)=O [[Nle^18,21]-AHC(8-41)] (H-LDLTFHLLRE[Nle]LE[Nle]AKAEQEAEQAALNRLLLEEA-NH2) | inhibits the secretion | inhibits the secretion | – | – | – | –
2 | CCCC[C@H](NC(=O)[C@H](CCC(=O)O)NC(=O)[C@H](CC(C)C)NC(=O)[C@H](CCCC)NC(=O)[C@H](CCC(=O)O)NC(=O)[C@H](CCCNC(=N)N)NC(=O)[C@H](CC(C)C)NC(=O)[C@H](CC(C)C)NC(=O)[C@H](Cc1c[nH]cn1)NC(=O)[C@H](Cc1ccccc1)NC(=O)[C@@H](NC(=O)[C@H](CC(C)C)NC(=O)[C@@H](N)CC(=O)O)[C@@H](C)O)C(=O)N[C@@H](C)C(=O)N[C@@H](CCCCN)C(=O)N[C@@H](C)C(=O)N[C@@H](CCC(=O)O)C(=O)N[C@@H](CCC(N)=O)C(=O)N[C@@H](CCC(=O)O)C(=O)N[C@@H](C)C(=O)N[C@@H](CCC(=O)O)C(=O)N[C@@H](CCC(N)=O)C(=O)N[C@@H](C)C(=O)N[C@@H](C)C(=O)N[C@@H](CC(C)C)C(=O)N[C@@H](CC(N)=O)C(=O)N[C@@H](CCCNC(=N)N)C(=O)N[C@@H](CC(C)C)C(=O)N[C@@H](CC(C)C)C(=O)N[C@@H](CC(C)C)C(=O)N[C@@H](CCC(=O)O)C(=O)N[C@@H](CCC(=O)O)C(=O)N[C@@H](C)C(N)=O [[Nle^18,21]-AHC(9-41)] (H-DLTFHLLRE[Nle]LE[Nle]AKAEQEAEQAALNRLLLEEA-NH2) | inhibits the secretion | inhibits the secretion | – | – | – | –
3 | CCCC[C@H](NC(=O)[C@H](CCC(=O)O)NC(=O)[C@H](CC(C)C)NC(=O)[C@H](CCCC)NC(=O)[C@H](CCC(=O)O)NC(=O)[C@H](CCCNC(=N)N)NC(=O)[C@H](CC(C)C)NC(=O)[C@H](CC(C)C)NC(=O)[C@H](Cc1c[nH]cn1)NC(=O)[C@H](Cc1ccccc1)NC(=O)[C@@H](NC(=O)[C@@H](N)CC(C)C)[C@@H](C)O)C(=O)N[C@@H](C)C(=O)N[C@@H](CCCCN)C(=O)N[C@@H](C)C(=O)N[C@@H](CCC(=O)O)C(=O)N[C@@H](CCC(N)=O)C(=O)N[C@@H](CCC(=O)O)C(=O)N[C@@H](C)C(=O)N[C@@H](CCC(=O)O)C(=O)N[C@@H](CCC(N)=O)C(=O)N[C@@H](C)C(=O)N[C@@H](C)C(=O)N[C@@H](CC(C)C)C(=O)N[C@@H](CC(N)=O)C(=O)N[C@@H](CCCNC(=N)N)C(=O)N[C@@H](CC(C)C)C(=O)N[C@@H](CC(C)C)C(=O)N[C@@H](CC(C)C)C(=O)N[C@@H](CCC(=O)O)C(=O)N[C@@H](CCC(=O)O)C(=O)N[C@@H](C)C(N)=O [[Nle^18,21]-AHC(10-41)] (H-LTFHLLRE[Nle]LE[Nle]AKAEQEAEQAALNRLLLEEA-NH2) | inhibits the secretion | inhibits the secretion | – | – | – | –
4 | CCCC[C@H](NC(=O)[C@H](CCC(=O)O)NC(=O)[C@H](CC(C)C)NC(=O)[C@@H](NC(=O)[C@H](CCC(=O)O)NC(=O)[C@H](CCCNC(=N)N)NC(=O)[C@H](CC(C)C)NC(=O)[C@H](CC(C)C)NC(=O)[C@H](Cc1c[nH]cn1)NC(=O)[C@H](Cc1ccccc1)NC(=O)[C@@H](NC(=O)[C@H](CC(C)C)NC(=O)[C@@H](N)CC(=O)O)[C@@H](C)O)C(C)C)C(=O)N[C@@H](C)C(=O)N[C@@H](CCCNC(=N)N)C(=O)N[C@@H](C)C(=O)N[C@@H](CCC(=O)O)C(=O)N[C@@H](CCC(N)=O)C(=O)N[C@@H](CC(C)C)C(=O)N[C@@H](C)C(=O)N[C@@H](CCC(N)=O)C(=O)N[C@@H](CCC(N)=O)C(=O)N[C@@H](C)C(=O)N[C@@H](Cc1ccc(O)cc1)C(=O)N[C@@H](CO)C(=O)N[C@@H](CC(N)=O)C(=O)N[C@@H](CCCNC(=N)N)C(=O)N[C@@H](CCCCN)C(=O)N[C@@H](CC(C)C)C(=O)N[C@@H](CCSC)C(=O)N[C@@H](CCC(=O)O)C(=O)N[C@H](C(=O)N[C@H](C(N)=O)[C@@H](C)CC)[C@@H](C)CC [[Nle^21, Tyr^32]-hCRF(9-41)] (H-DLTFHLLREVLE[Nle]ARAEQLAQQAYSNRKLMEII-NH2) | inhibits the secretion | inhibits the secretion | – | – | – | –
5 | CC[C@H](C)[C@H](NC(=O)[C@@H](NC(=O)[C@H](CCC(=O)O)NC(=O)[C@H](CCSC)NC(=O)[C@H](CC(C)C)NC(=O)[C@H](CCCCN)NC(=O)[C@H](CCCNC(=N)N)NC(=O)[C@H](CC(N)=O)NC(=O)[C@H](CO)NC(=O)[C@H](Cc1c[nH]cn1)NC(=O)[C@H](C)NC(=O)[C@H](CCC(N)=O)NC(=O)[C@H](CCC(N)=O)NC(=O)[C@H](C)NC(=O)[C@H](CC(C)C)NC(=O)[C@H](CCC(N)=O)NC(=O)[C@H](CCC(=O)O)NC(=O)[C@H](C)NC(=O)[C@H](CCCNC(=N)N)NC(=O)[C@H](C)NC(=O)[C@H](CCSC)NC(=O)[C@H](CCC(=O)O)NC(=O)[C@H](CC(C)C)NC(=O)[C@@H](NC(=O)[C@H](CCC(=O)O)NC(=O)[C@H](CCCNC(=N)N)NC(=O)[C@H](CC(C)C)NC(=O)[C@H](CC(C)C)NC(=O)[C@H](Cc1c[nH]cn1)NC(=O)[C@H](Cc1ccccc1)NC(=O)[C@@H](NC(=O)[C@H](CC(C)C)NC(=O)[C@H](CC(=O)O)NC(=O)[C@H](CC(C)C)NC(=O)[C@H](CO)NC(=O)[C@@H](NC(=O)[C@@H]1CCCN1C(=O)[C@@H]1CCCN1C(=O)[C@H](CCC(=O)O)NC(=O)[C@H](CCC(=O)O)NC(=O)[C@@H](N)CO)[C@@H](C)CC)[C@@H](C)O)C(C)C)[C@@H](C)CC)C(N)=O [hCRF] | – | – | 5 to 20 | powerful stimulator | 5 to 20 | powerful stimulator
6 | Ac-DLTFHLLREVLEMARAEQLAQQAHSNRKLMDII-NH2 [[Acetyl-Asp^9, Asp^39]-hCRF(9-41)] | inhibits the secretion | inhibits the secretion | – | – | – | –
7 | H-Asp-CML-Thr-Leu-Glu-CML-CML-Arg-Glu-Met-CML-Glu-Met-CMA-Lys-Ala-Glu-Gln- CML-Ala-Glu-Gln-Ala-CMA-CML-Asn-Arg-Leu-CML-Leu-Glu-Glu-CMA-NH2 | inhibits the secretion | inhibits the secretion | – | – | – | –
8 | H-DLSLELLRKMIEIAKQEKEKQQAANNRLLMDTI-NH2 [[Ala^21, Met^37]-sauvagine(8-40)] | inhibits the secretion | inhibits the secretion | – | – | – | –
9 | H-DLSLELLRKMIEIEKQEKLKQQAANNRLLMDTI-NH2 [[Leu^26, Met^37]-sauvagine(8-40)] | inhibits the secretion | inhibits the secretion | – | – | – | –
10 | H-DLTFALLREMLEMAKAEQEAEQAALNRLLLEEA-NH2 [[Ala^13]-AHC(9-41)] | inhibits the secretion | inhibits the secretion | – | – | – | –
11 | H-DLTFELLREVLEVARAEQLAQQAHSNRKLMEII-NH2 [[Glu^13, Val^21]-hCRF(9-41)] | inhibits the secretion | inhibits the secretion | – | – | – | –
12 | H-DLTFHLLREVAEMTRAEQLAQQAHSNRKLMEII-NH2 [[Ala^19, Thr^22]-hCRF(9-41)] | inhibits the secretion | inhibits the secretion | – | – | – | –
13 | H-DLTFHLLRNMIEMARNENQREQAGLNRKYLDEV-NH2 [Carp Urotensin I(9-41)] | inhibits the secretion | inhibits the secretion | – | – | – | –
14 | H-DLTLELLREMLEMAKAEQEAEQAALNRLLLEEA-NH2 [[Leu^12, Glu^13]-AHC(9-41)] | inhibits the secretion | inhibits the secretion | – | – | – | –
15 | H-IDLTFHLLRNMIEMARNENQREQAGLNRKYLDEV-NH2 [Carp Urotensin I(8-41)] | inhibits the secretion | inhibits the secretion | – | – | – | –
16 | H-LDLTFHLLREVLEMAKAEQLAQQAHSNRKLLEII-NH2 [[Lys^23, Leu^38]-hCRF(8-41)] | inhibits the secretion | inhibits the secretion | – | – | – | –
17 | H-LDLTLELLREMLEMEKAEKEAEQAALNRLLLEEA-NH2 [[Glu^13,22, Leu^12, Lys^26]-AHC(8-41)] | inhibits the secretion | inhibits the secretion | – | – | – | –
18 | H-LSLELLRKMIEARKQEKEKQQAANNRLLLDII-NH2 | inhibits the secretion | inhibits the secretion | – | – | – | –

From patent US4605642A, “CRF antagonists” (The Salk Institute for Biological Studies, priority 1984, dated 1986)
